Measured values taken from ChEMBL document CHEMBL3046217, “Synthesis, antimicrobial, antioxidant, anti-inflammatory, and analgesic activities of some new 3-(2-thienyl)pyrazole-based heterocycles” (Med Chem Res, 2012).
≈ marks a conversion by molar mass, not a printed value. Calls of active or inactive are those of the source. No cut-off for these calls is given here.

Tests used:
[1] = system: Saccharomyces cerevisiae; assay: Antimicrobial activity against Saccharomyces cerevisiae after 24 hr by agar diffusion method; type: functional; conditions: for MIC: Saccharomyces cerevisiae, 24 h
[2] = system: Mycolicibacterium phlei; assay: Antimicrobial activity against Mycobacterium phlei after 24 hr by agar diffusion method; type: functional
[3] = system: Enterococcus faecalis; assay: Antimicrobial activity against Enterococcus faecalis ATCC 29212 after 24 hr by agar diffusion method; type: functional; conditions: for MIC: Enterococcus faecalis, ATCC 29212, 24 h
[4] = system: Aspergillus niger; assay: Antimicrobial activity against Aspergillus niger after 24 hr by agar diffusion method; type: functional, organism-based
[5] = system: Radical scavenging activity; assay: Antioxidant activity assessed as as DPPH radical scavenging activity by spectrophotometry; type: functional
[6] = system: Rattus norvegicus; assay: Anti-inflammatory activity in Rattus norvegicus Sprague-Dawley (rat) assessed as inhibition of carrageenan-induced paw edema at 20 mg/kg, po administered 1 hr before carrageenan challenge and measured hourly for 4-hr post drug administration by mercury plethysmometer; type: functional, organism-based; set-up: dose 20 mg/kg
[7] = system: Salmonella typhi; assay: Antimicrobial activity against Salmonella enterica subsp. enterica serovar Typhi after 24 hr by agar diffusion method; type: functional; conditions: for MIC: Salmonella enterica, 24 h
[8] = system: Staphylococcus aureus; assay: Antimicrobial activity against Staphylococcus aureus ATCC 29213 after 24 hr by agar diffusion method; type: functional; conditions: for MIC: Staphylococcus aureus, ATCC 29213, 24 h
[9] = system: Candida albicans; assay: Antimicrobial activity against Candida albicans NRRLY-477 after 24 hr by agar diffusion method; type: functional; conditions: for MIC: Candida albicans, NRRLY-477, 24 h
[10] = system: Enterobacter cloacae; assay: Antimicrobial activity against Enterobacter cloacae ATCC 3047 after 24 hr by agar diffusion method; type: functional; conditions: for MIC: Enterobacter cloacae, ATCC 3047, 24 h
[11] = system: Klebsiella pneumoniae; assay: Antimicrobial activity against Klebsiella pneumoniae ATCC 13883 after 24 hr by agar diffusion method; type: functional; conditions: for MIC: Klebsiella pneumoniae, ATCC 13883, 24 h
[12] = system: Mus musculus; assay: Analgesic activity in Mus musculus Swiss albino (mouse) assessed as inhibition of acetic acid-induced writhing at 20 mg/kg, po administered 30 min before acetic acid challenge measured for 20 min after acetic acid injection […]; type: functional, organism-based; set-up: dose 20 mg/kg
[13] = system: Escherichia coli; conditions: ATCC 25922
Description: Antimicrobial activity against Escherichia coli ATCC 25922 after 24 hr by agar diffusion method

[14] = system: Pseudomonas aeruginosa; assay: Antimicrobial activity against Pseudomonas aeruginosa ATCC 29953 after 24 hr by agar diffusion method; type: functional; conditions: for MIC: Pseudomonas aeruginosa, ATCC 29953, 24 h
[15] = system: Bacillus spizizenii; assay: Antimicrobial activity against Bacillus subtilis subsp. spizizenii ATCC 6633 after 24 hr by agar diffusion method; type: functional; conditions: for MIC: Bacillus spizizenii, ATCC 6633, 24 h

Compound	inhibition zone (IZ) [1]	inhibition zone (IZ) [2]	inhibition zone (IZ) [3]	Activity [4]	IC50 [5] [µg/mL]	inhibition [6]	inhibition zone (IZ) [7]	inhibition zone (IZ) [8]	MIC [8] [µg/mL]	inhibition zone (IZ) [9]	inhibition zone (IZ) [10]	inhibition zone (IZ) [11]	inhibition [12]	IZ [13]	inhibition zone (IZ) [14]	inhibition zone (IZ) [15]	MIC [15] [µg/mL]	MIC [1] [µg/mL]	MIC [10] [µg/mL]	MIC [3] [µg/mL]	other results
C(=N/Nc1nc(-c2cc3ccccc3o2)cs1)/c1cn(-c2ccccc2)nc1-c1cccs1	inactive	inactive	15 mm	inactive	25 (≈ 53.5 µM)	Active	inactive	21 mm	167 (≈ 356 µM)	inactive	15 mm	15 mm	Active	inactive	14 mm	23 mm	167 (≈ 356 µM)	–	–	–	–
NC(=S)N/N=C\c1cn(-c2ccccc2)nc1-c1cccs1	30 mm	16 mm	13 mm	inactive	500 (≈ 1530 µM)	Active	28 mm	21 mm	83.3 (≈ 254 µM)	16 mm	26 mm	28 mm	Active	inactive	15 mm	29 mm	20.8 (≈ 63.5 µM)	20.8 (≈ 63.5 µM)	20.8 (≈ 63.5 µM)	–	MIC [7]: 20.8 µg/mL (≈ 63.5 µM); MIC [11]: 20.8 µg/mL (≈ 63.5 µM)
Cc1ccc(NC(=S)N2N=C(c3ccc(Cl)cc3)CC2c2cn(-c3ccccc3)nc2-c2cccs2)cc1 (centres undefined)	inactive	13 mm	21 mm	inactive	500 (≈ 902 µM)	Active	inactive	15 mm	–	15 mm	16 mm	21 mm	Active	inactive	inactive	21 mm	167 (≈ 301 µM)	–	–	167 (≈ 301 µM)	MIC [11]: 333 µg/mL (≈ 601 µM)
O=C(O)c1cn(C2CC2)c2cc(N3CCNCC3)c(F)cc2c1=O [CIPROFLOXACIN]	inactive	22 mm	23 mm	–	–	–	21 mm	–	–	inactive	–	–	–	–	24 mm	22 mm	10.4 (≈ 31.4 µM)	–	–	–	MIC [7]: 41.6 µg/mL (≈ 126 µM)
CC(=O)N1CCN(c2ccc(OCC3COC(Cn4ccnc4)(c4ccc(Cl)cc4Cl)O3)cc2)CC1 (racemic) [KETOCONAZOLE]	23 mm	inactive	inactive	–	–	–	inactive	inactive	–	22 mm	inactive	inactive	–	inactive	inactive	inactive	–	5.2 (≈ 9.78 µM)	–	–	MIC [9]: 10.4 µg/mL (≈ 19.6 µM)
C(=N/Nc1nc2nc3ccccc3nc2s1)/c1cn(-c2ccccc2)nc1-c1cccs1	28 mm	15 mm	21 mm	inactive	500 (≈ 1100 µM)	Active	inactive	21 mm	333 (≈ 735 µM)	inactive	18 mm	inactive	Active	inactive	28 mm	26 mm	41.6 (≈ 91.7 µM)	41.6 (≈ 91.7 µM)	333 (≈ 735 µM)	167 (≈ 367 µM)	MIC [14]: 41.6 µg/mL (≈ 91.7 µM)
O=c1oc2ccccc2cc1-c1csc(N/N=C\c2cn(-c3ccccc3)nc2-c2cccs2)n1	inactive	inactive	22 mm	inactive	25 (≈ 50.4 µM)	Active	inactive	11 mm	–	inactive	14 mm	14 mm	Active	inactive	inactive	21 mm	167 (≈ 336 µM)	–	–	83.3 (≈ 168 µM)	–
Cc1nc(N/N=C\c2cn(-c3ccccc3)nc2-c2cccs2)sc1/N=N/c1ccc(F)cc1	31 mm	inactive	16 mm	inactive	25 (≈ 51.3 µM)	Active	inactive	21 mm	41.8 (≈ 85.7 µM)	17 mm	26 mm	18 mm	Active	inactive	19 mm	22 mm	167 (≈ 342 µM)	20.8 (≈ 42.7 µM)	41.6 (≈ 85.3 µM)	–	MIC [9]: 167 µg/mL (≈ 342 µM); MIC [11]: 167 µg/mL (≈ 342 µM); MIC [14]: 333 µg/mL (≈ 684 µM)
O=C1CS/C(=N\N=C/c2cn(-c3ccccc3)nc2-c2cccs2)N1	29 mm	inactive	15 mm	inactive	500 (≈ 1360 µM)	Active	inactive	29 mm	20.8 (≈ 56.6 µM)	inactive	13 mm	inactive	Active	inactive	inactive	19 mm	167 (≈ 453 µM)	41.6 (≈ 113 µM)	–	–	–
N/C(=N/N=C\c1cn(-c2ccccc2)nc1-c1cccs1)SCC(=O)Nc1cccs1	inactive	inactive	21 mm	inactive	1000 (≈ 2140 µM)	Active	inactive	28 mm	20.8 (≈ 44.6 µM)	15 mm	28 mm	18 mm	Active	inactive	15 mm	23 mm	83.3 (≈ 179 µM)	–	20.8 (≈ 44.6 µM)	83.3 (≈ 179 µM)	MIC [11]: 167 µg/mL (≈ 357 µM)
O=C(/C=C/c1cn(-c2ccccc2)nc1-c1cccs1)c1ccc(Cl)cc1	29 mm	15 mm	21 mm	inactive	1000 (≈ 2560 µM)	Active	24 mm	21 mm	167 (≈ 426 µM)	18 mm	24 mm	18 mm	Active	inactive	19 mm	21 mm	167 (≈ 426 µM)	20.8 (≈ 53.2 µM)	41.6 (≈ 106 µM)	83.3 (≈ 213 µM)	MIC [7]: 83.3 µg/mL (≈ 213 µM); MIC [9]: 167 µg/mL (≈ 426 µM); MIC [11]: 167 µg/mL (≈ 426 µM); MIC [14]: 333 µg/mL (≈ 853 µM)
O=C(O)Cc1ccccc1Nc1c(Cl)cccc1Cl	–	–	–	–	–	Active	–	–	–	–	–	–	Active	–	–	–	–	–	–	–	–
Clc1ccc(C2=NNC(c3cn(-c4ccccc4)nc3-c3cccs3)C2)cc1 (centres undefined)	31 mm	inactive	21 mm	inactive	750 (≈ 1850 µM)	Active	inactive	20 mm	333 (≈ 823 µM)	17 mm	21 mm	inactive	Active	inactive	26 mm	17 mm	333 (≈ 823 µM)	20.8 (≈ 51.4 µM)	83.3 (≈ 206 µM)	41.6 (≈ 103 µM)	MIC [9]: 167 µg/mL (≈ 411 µM); MIC [14]: 167 µg/mL (≈ 411 µM)
